Earlier results, collected in patent publication US6017948A, “Water-miscible pharmaceutical compositions” (Supergen, Inc., priority 1998, dated 2000).

How the values were obtained:
animals = details: chronic high doses (more than 100 mg/kg)
breast cancer = details: single-agent phase II
[1] = system: previously untreated non-small-cell lung cancer; details: single-agent phase II
head and neck cancer = details: single-agent phase II
[2] = system: refractory ovarian cancer; details: single-agent phase II

Row | Structure (SMILES) | toxic effects (animals) | effect on tubulin polymer / microtubule assembly (tubulin polymer) | response rates (complete and partial) (breast cancer) | response rates (complete and partial) [1] | response rates (complete and partial) (head and neck cancer) | response rates (complete and partial) [2]
1 | CCCCC(CC)COC(=O)c1ccccc1C(=O)OCC(CC)CCCC (stereo not drawn) [DEHP, diethylhexylphthalate] | growth retardation, liver weight increase, liver damage, testicular atrophy, teratogenicity, and carcinogenicity | – | – | – | – | –
2 | CC(=O)O[C@H]1C(=O)[C@@]2(C)[C@H]([C@H](OC(=O)c3ccccc3)[C@]3(O)C[C@H](OC(=O)[C@H](O)[C@@H](NC(=O)c4ccccc4)c4ccccc4)C(C)=C1C3(C)C)[C@]1(OC(C)=O)CO[C@@H]1C[C@@H]2O [paclitaxel] | – | stabilizes the tubulin polymer and promotes microtubule assembly | Encouraging response rates | Encouraging response rates | Encouraging response rates | Encouraging response rates
